Measurements reported in US20090111736A1, “Orally-Absorbed Solid Dose Formulation for Vancomycin” (SRI International, priority 2007, published 2009).
Where a name gives a salt, the structure may show the parent alone.

Columns and labels:
[1] = In vitro mucosal-to-serosal vancomycin transport, modified Ussing chambers, duodenum; format: in vitro ADME, rat; settings: male, rat, pH 7.4, 5 mg/ml, HEPES buffer alone
From the text: (§1) We investigated regional variation in permeation of vancomycin (VCM) across various segments of rat intestine and colon in vitro by mounting isolated segments of rat intestine and colon between horizontal modified Ussing chambers. The effects of drug concentration and of addition of a p-glycoprotein inhibitor or permeation enhancer(s) as formulation additives on VCM permeation were also studied in vitro using segments of rat jejunum.
(§2) Methods: A modified Ussing system (Easy mount Ussing system, Physiological Instruments Inc., CA, Item # EM-CSYS-8) with eight sets of chambers was used for all in vitro studies; each set consisted of two parallel diffusion chambers, a heating block for temperature control, needle valves for gas flow adjustment and gas mixing, and Ag/AgCl voltage and current electrodes for measuring transepithelial voltage and for passing current.
(§3) Harvesting of required small intestinal or colon segments of a male rat was performed using experimental procedures described in the literature (Gotoh et al., J Biomol Screen (2005) 10:517-23). The harvested segments of small intestine or colon were mounted on sliders placed between the two horizontal chambers of a modified Ussing system.
(§4) VCM was dissolved in HEPES buffer pH 7.4 (Table 1) previously saturated with 100% O2 or HEPES buffer containing additives selected from permeation enhancer(s) and/or an efflux transport inhibitor (Table 2) to obtain predetermined concentrations of drug and additive(s).
(§5) Drug transport across epithelial membranes of harvested rat small intestine and colon segments, in mucosal-to-serosal (M-to-S) direction, was studied using modified Ussing Chambers. Aliquots of HEPES buffer (5 ml) were initially added to both the mucosal and serosal chambers and allowed to equilibrate for 20 minutes. The HEPES buffer in the mucosal chamber was replaced by a study sample containing VCM alone or VCM and selected additive(s) in HEPES buffer, e.g., 5 mg/mL of VCM dissolved in HEPES buffer containing 10% w/w Labrasol®. Aliquots of 0.5 mL buffer solutions were removed periodically from serosal chambers, and replaced with equal volumes of fresh warm (37±2° C.) HEPES buffer previously saturated with 100% O2. To study the effect of additives in the serosal chamber (i.e., quinidine and sodium decanoate), HEPES buffer containing the selected additive was placed in the serosal chamber and replaced with the same buffer composition during sampling.
(§6) Changes in transepithelial short-circuit current (in micro-Amps) and membrane resistance (in Ohms) as a function of time were monitored continuously during in vitro studies to serve as indicators of tissue viability and drug permeability, respectively. The buffer samples from the receptor chambers were analyzed for VCM content on a high pressure liquid chromatograph (HPLC; Hewlett Packard Model 1100 series).
(§7) The analysis of VCM samples was performed using a reverse phase gradient HPLC method, with a Hypersil BDS C18 column, 5 μm, 150×4.6 mm., mobile phase consisting of 5 mM potassium phosphate monobasic in water (pH 3) as solvent A and acetonitrile as solvent B at a flow rate of 1 ml/min (Farin et al., J Pharm Biomed Anal (1998) 18:367-72). The eluant was monitored by a UV/diode array detector at 280 nm.
(§8) To compare data obtained from different in vitro experiments, the apparent permeability coefficients were calculated using the equation: […]
(§9) Where dQ/dt is the linear appearance rate of mass in receiver compartment, C0 is the initial solute concentration in donor compartment, and A is the surface area (Luo et al., Drug Metab Dispos (2002) 30:763-70).

[2] = test system: rat duodenum; test: as above; format: in vitro ADME; settings: 5 mg/ml vancomycin in HEPES buffer
From the text: as §1, §2, §3, §4, §5, §6, §7, §8, §9

[3] = In vitro mucosal-to-serosal vancomycin transport, modified Ussing chambers, ileum; format: in vitro ADME, rat; settings: male, rat, pH 7.4, 5 mg/ml, HEPES buffer alone
From the text: as §1, §2, §3, §4, §5, §6, §7, §8, §9

[4] = test system: rat ileum; test: as above; format: in vitro ADME; settings: 5 mg/ml vancomycin in HEPES buffer
From the text: as §1, §2, §3, §4, §5, §6, §7, §8, §9

## CN[C@H](CC(C)C)C(=O)N[C@H]1C(=O)N[C@@H](CC(N)=O)C(=O)N[C@H]2C(=O)N[C@H]3C(=O)N[C@H](C(=O)N[C@H](C(=O)O)c4cc(O)cc(O)c4-c4cc3ccc4O)[C@H](O)c3ccc(c(Cl)c3)Oc3cc2cc(c3O[C@@H]2O[C@H](CO)[C@@H](O)[C@H](O)[C@H]2O[C@H]2C[C@](C)(N)[C@H](O)[C@H](C)O2)Oc2ccc(cc2Cl)[C@H]1O [Vancomycin hydrochloride]
[1]
  Papp at 2.5 hr, 5 mg/ml: 0.2 ± 0.05 ×10⁻⁶ cm/s
[2]; 0.5 hr
  Ave. Cumulative Amt VCM Released: 0.00 ± 0.00 µg
[2]; 1.0 hr
  Ave. Cumulative Amt VCM Released: 0.00 ± 0.00 µg
[2]; 1.5 hr
  Ave. Cumulative Amt VCM Released: 0.40 ± 0.80 µg
[2]; 2.0 hr
  Ave. Cumulative Amt VCM Released: 2.08 ± 0.87 µg
[2]; 2.5 hr
  Ave. Cumulative Amt VCM Released: 3.51 ± 1.34 µg
[3]
  Papp at 2.5 hr, 5 mg/ml: 0.38 ± 0.05 ×10⁻⁶ cm/s
[4]; 0.5 hr
  Ave. Cumulative Amt VCM Released: 0.00 ± 0.00 µg
[4]; 1.0 hr
  Ave. Cumulative Amt VCM Released: 0.00 ± 0.00 µg
[4]; 1.5 hr
  Ave. Cumulative Amt VCM Released: 2.55 ± 0.67 µg
[4]; 2.0 hr
  Ave. Cumulative Amt VCM Released: 4.31 ± 1.17 µg
[4]; 2.5 hr
  Ave. Cumulative Amt VCM Released: 6.33 ± 1.66 µg
